Assay results published in patent EP1701623B1, “METHODS FOR WASHING POULTRY DURING PROCESSING WITH MEDIUM CHAIN PEROXYCARBOXYLIC ACID COMPOSITIONS” (ECOLAB INC., priority 2004, dated 2005).

Tests used:
Bacterial Spores = assay: Antimicrobial activity against bacterial spores versus conventional compositions; type: cell-based; conditions: 0.5 min, pH 3.32, 35%
Experimental: (§1) Antimicrobial activity was determined according to two well established methods. The first method was the procedure set out in Germicidal and Detergent Sanitizing Action of Disinfectants, Official Methods of Analysis of the Association of Official Analytical Chemists, paragraph 960.09 and applicable sections, 15th Edition, 1990 (EPA Guideline 91-2). The second method was the procedure described in A.O.A.C. Use Dilution Methods, Official Methods of Analysis of the Association of Official Analytical Chemists, paragraph 955.14 and applicable sections, 15th Edition, 1990 (EPA Guideline 91-2). Briefly, antimicrobial activity of the present compositions was determined by exposing a one mL aliquot containing the target microorganism to 99 mL of the desired concentration of the test substance at the desired temperature. After the specified contact time, one mL of the test solution containing the microorganism was neutralized and enumerated for survivors.

S. aureus = assay: Antimicrobial activity, AOAC sanitizing/use dilution suspension test; type: cell-based; conditions: Staphylococcus aureus
Experimental: as §1

Row | SMILES | log reduction at 35 % (Bacterial Spores; 40 °C, 30 sec) | log reduction at 35 % (Bacterial Spores; 40 °C, 60 sec) | log reduction at 35 % (Bacterial Spores; 40 °C, 120 sec) | log reduction at 35 % (Bacterial Spores; 60 °C, 10 sec) | log reduction at 35 % (Bacterial Spores; 60 °C, 20 sec) | log reduction at 35 % (Bacterial Spores; 60 °C, 30 sec) | log reduction at 35 % (Bacterial Spores; 80 °C, 10 sec) | log reduction at 35 % (Bacterial Spores; 80 °C, 20 sec) | log reduction at 35 % (Bacterial Spores; 80 °C, 30 sec) | log reduction at 5 µg/mL (S. aureus; concentration of 5 ppm and pH of ∼5, Table 25, read-out: log reductions of Staphylococcus aureus) | log reduction at 11 µg/mL (S. aureus; pH 6.1, pH of 6.1, 11 ppm of peroxyoctanoic acid (POOA), Table 13 (composition K), read-out: reducing S. aureus)
1 | OO [Composition H2O2, hydrogen peroxide] | 1.19 | 2.94 | > 6.3 | 1.59 | 4.85 | 4.89 | > 6.3 | > 6.3 | > 6.3 | – | –
2 | CCCCCCCC(=O)OO [Pure POOA Crystals, peroxyoctanoic acid] | – | – | – | – | – | – | – | – | – | 5 | > 7.04
